Experimental data from ChEMBL document CHEMBL1144059, “Interference of linoleic acid fraction in some receptor binding assays” (J Nat Prod, 1999).

How the values were obtained:
[1] = target: T1, Adenosine receptor A1 (Rattus norvegicus) (UniProt P25099); test: Displacement of [3H]DPCPX from rat brain adenosine A1 receptor at 56 uM assessed per mg of protein by saturation analysis
T1 sequence (whole entry): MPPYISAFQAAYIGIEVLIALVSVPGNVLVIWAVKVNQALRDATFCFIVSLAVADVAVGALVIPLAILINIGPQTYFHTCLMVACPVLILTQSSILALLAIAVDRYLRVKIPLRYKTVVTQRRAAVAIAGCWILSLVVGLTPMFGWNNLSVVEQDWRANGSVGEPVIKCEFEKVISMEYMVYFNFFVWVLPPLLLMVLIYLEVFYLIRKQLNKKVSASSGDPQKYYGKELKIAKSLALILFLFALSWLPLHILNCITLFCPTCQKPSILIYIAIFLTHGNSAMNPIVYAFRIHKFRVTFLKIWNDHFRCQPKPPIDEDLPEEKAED

Rattus norvegicus [2] = species on record: Rattus norvegicus; test: Displacement of [3H]naloxone from rat opioid receptor at 1 mM
[3] = target: T1, Adenosine receptor A1 (Rattus norvegicus); test: Displacement of [3H]DPCPX from rat adenosine A1 receptor at 1 mM by liquid scintillation counting
Bos taurus [4] = species on record: Bos taurus; test: Displacement of [3H]nitrobenzylthiosine from nucleoside transport protein in calf lung membrane at 0.1 mM; format: cell membranes
Rattus norvegicus [5] = species on record: Rattus norvegicus; test: Displacement of [3H]naloxone from rat opioid receptor at 0.1 mM
Bos taurus [6] = species on record: Bos taurus; test: Displacement of [3H]nitrobenzylthiosine from nucleoside transport protein in calf lung membrane at 1 mM; format: cell membranes
Adenosine receptor A1 = target: T2, Adenosine receptor A1 (Rattus norvegicus, UniProt P25099); test: Displacement of [3H]DPCPX from rat adenosine A1 receptor by liquid scintillation counting
T2 sequence (P25099 whole entry): T1 sequence (whole entry)

[7] = target: T1, Adenosine receptor A1 (Rattus norvegicus); test: Displacement of [3H]DPCPX from rat adenosine A1 receptor at 10 uM by liquid scintillation counting
[8] = target: T1, Adenosine receptor A1 (Rattus norvegicus); test: Displacement of [3H]DPCPX from rat adenosine A1 receptor at 0.1 mM by liquid scintillation counting
Rattus norvegicus [9] = species on record: Rattus norvegicus; test: Displacement of [3H]naloxone from rat opioid receptor at 10 uM
Bos taurus [10] = species on record: Bos taurus; test: Displacement of [3H]nitrobenzylthiosine from nucleoside transport protein in calf lung membrane at 10 uM; format: cell membranes

Activity [1]: 143 fmol | Activity (Rattus norvegicus [2]): > 100% | Activity [3]: 0% | Activity (Bos taurus [4]): 100% | Activity (Rattus norvegicus [5]): 42% | Activity (Bos taurus [6]): < 0% | IC50 (Adenosine receptor A1): 65 µM | Activity [7]: 85% | Activity [8]: 3% | Activity (Rattus norvegicus [9]): 100% | Activity (Bos taurus [10]): 100%
Compound: CCCCC/C=C\C/C=C\CCCCCCCC(=O)O [LINOLEIC ACID]
